Laboratory results reported in ChEMBL document CHEMBL4665770, “Design and Discovery of Natural Cyclopeptide Skeleton Based Programmed Death Ligand 1 Inhibitor as Immune Modulator for Cancer Therapy” (J Med Chem, 2020).
Square brackets hold non-standard residues; d marks the D form. Peptide text beside a SMILES is read from it. Orn = NCCC[C@H](N)C(=O)O

target: Programmed cell death protein 1/Programmed cell death 1 ligand 1 (Homo sapiens) (UniProt Q15116+Q9NZQ7); assay: Inhibition of PD1-Tag2/PD-L1-Tag1 (unknown origin) protein-protein interaction at 20 uM preincubated for 15 mins followed by addition of anti-Tag1-Eu3+ and anti-Tag2-XL665 measured after 3 hrs by HTRF assay relative to control; format: protein-complex assay; details: time 195.0 min

SMILES	inhibition
CC(C)C[C@@H]1NC(=O)[C@H](CC(=O)O)NC(=O)[C@H](C(C)C)NC(=O)[C@@H]2CCCN2C(=O)[C@@H](Cc2ccccc2)NC(=O)[C@H](CC(C)C)NC(=O)[C@H](CCCNC(=N)N)NC(=O)[C@H](CCC(=O)O)NC(=O)[C@@H]2CCCN2C(=O)[C@@H](Cc2ccccc2)NC1=O	-3.03%
CC(C)C[C@@H]1NC(=O)[C@H](CC(=O)O)NC(=O)[C@H]([C@@H](C)O)NC(=O)[C@@H]2CCCN2C(=O)[C@@H](Cc2c[nH]c3ccccc23)NC(=O)[C@H](CC(C)C)NC(=O)[C@H](CCCNC(=N)N)NC(=O)[C@H](C(C)C)NC(=O)[C@@H]2CCCN2C(=O)[C@@H](Cc2ccccc2)NC1=O (cyclo(DL[dF]PVRL[dW]PT))	43.4%
CC(C)C[C@@H]1NC(=O)[C@H](CCCNC(=N)N)NC(=O)[C@H]([C@@H](C)O)NC(=O)[C@@H]2CCCN2C(=O)[C@@H](Cc2ccccc2)NC(=O)[C@H](CC(C)C)NC(=O)[C@H](CC(=O)O)NC(=O)[C@H](C)NC(=O)[C@@H]2CCCN2C(=O)[C@@H](Cc2ccccc2)NC1=O (cyclo(ADL[dF]PTRL[dF]P))	41.2%
CC(C)C[C@@H]1NC(=O)[C@H](CCCNC(=N)N)NC(=O)[C@H](C(C)C)NC(=O)[C@@H]2CCCN2C(=O)[C@@H](Cc2ccccc2)NC(=O)[C@H](CC(C)C)NC(=O)[C@H](CC(=O)O)NC(=O)[C@H](CCC(=O)O)NC(=O)[C@@H]2CCCN2C(=O)[C@@H](Cc2ccccc2)NC1=O	1.14%
CC(C)C[C@@H]1NC(=O)[C@H](CC(=O)O)NC(=O)[C@H]([C@@H](C)O)NC(=O)[C@@H]2CCCN2C(=O)[C@@H](Cc2ccccc2)NC(=O)[C@H](CC(C)C)NC(=O)[C@H](CC(=O)O)NC(=O)[C@H](C(C)C)NC(=O)[C@@H]2CCCN2C(=O)[C@@H](Cc2ccccc2)NC1=O	-6.65%
CC(C)C[C@@H]1NC(=O)[C@H](CCCNC(=N)N)NC(=O)[C@H](C(C)C)NC(=O)[C@@H]2CCCN2C(=O)[C@@H](Cc2ccccc2)NC(=O)[C@H](C)NC(=O)[C@H](CC(C)C)NC(=O)[C@H](C(C)C)NC(=O)[C@@H]2CCCN2C(=O)[C@@H](Cc2ccccc2)NC1=O (cyclo(A[dF]PVRL[dF]PVL))	4.03%
CC(C)C[C@@H]1NC(=O)[C@H](CCC(=O)O)NC(=O)[C@H]([C@@H](C)O)NC(=O)[C@@H]2CCCN2C(=O)[C@@H](Cc2ccccc2)NC(=O)[C@H](CC(C)C)NC(=O)[C@H](CCCNC(=N)N)NC(=O)C(C(C)C)NC(=O)[C@@H]2CCCN2C(=O)[C@@H](Cc2ccccc2)NC1=O (stereo partly drawn)	20.6%
CC(C)C[C@@H]1NC(=O)[C@H](CC(N)=O)NC(=O)[C@H]([C@@H](C)O)NC(=O)[C@@H]2CCCN2C(=O)[C@@H](Cc2ccccc2)NC(=O)[C@H](CC(C)C)NC(=O)[C@H](CCCNC(=N)N)NC(=O)[C@H](C(C)C)NC(=O)[C@@H]2CCCN2C(=O)[C@@H](Cc2ccccc2)NC1=O (cyclo(L[dF]PTNL[dF]PVR))	17%
CC(NCCCC[C@@H]1NC(=O)[C@@H](Cc2ccccc2)NC(=O)[C@H](CC(C)C)N(C)C(=O)[C@H](CC(=O)O)NC(=O)[C@H]([C@@H](C)O)NC(=O)[C@@H]2CCCN2C(=O)[C@@H](Cc2c[nH]c3ccccc23)NC(=O)[C@H](CC(C)C)NC(=O)[C@H](CCCNC(=N)N)NC(=O)[C@H](C(C)C)NC1=O)=C1C(=O)CC(C)(C)CC1=O	19.5%
CC(C)C[C@@H]1NC(=O)[C@H](CC(=O)O)NC(=O)[C@H]([C@@H](C)O)NC(=O)[C@@H]2CCCN2C(=O)[C@@H](Cc2ccccc2)NC(=O)[C@H](CC(C)C)NC(=O)[C@H](CCCCN)NC(=O)[C@H](C(C)C)NC(=O)[C@@H]2CCCN2C(=O)[C@@H](Cc2ccccc2)NC1=O (cyclo(DL[dF]PVKL[dF]PT))	3.52%
CC(C)C[C@@H]1NC(=O)[C@H](CCCNC(=N)N)NC(=O)[C@H](C(C)C)NC(=O)[C@@H]2CCCN2C(=O)[C@@H](Cc2ccccc2)NC(=O)[C@H](CC(C)C)NC(=O)[C@H](CCCNC(=N)N)NC(=O)[C@H](C(C)C)NC(=O)[C@@H]2CCCN2C(=O)[C@@H](C)NC1=O (cyclo(L[dA]PVRL[dF]PVR))	9.49%
CC(C)C[C@@H]1NC(=O)[C@H](CCCNC(=N)N)NC(=O)[C@H](C(C)C)NC(=O)[C@@H]2CCCN2C(=O)[C@H](CC(=O)O)NC(=O)[C@@H](Cc2ccccc2)NC(=O)[C@H](CC(C)C)NC(=O)[C@H]([C@@H](C)O)NC(=O)[C@@H]2CCCN2C(=O)[C@@H](Cc2ccccc2)NC1=O (cyclo(DPVRL[dF]PTL[dF]))	-0.905%
CC(NCCCC[C@@H]1NC(=O)[C@@H](Cc2ccccc2)NC(=O)[C@H](CC(C)C)NC(=O)[C@H](CC(=O)O)NC(=O)[C@H]([C@@H](C)O)NC(=O)[C@@H]2CCCN2C(=O)[C@@H](Cc2c[nH]c3ccccc23)NC(=O)[C@H](CC(C)C)N(C)C(=O)[C@H](CCCNC(=N)N)NC(=O)[C@H](C(C)C)NC1=O)=C1C(=O)CC(C)(C)CC1=O	16.1%
CC(C)C[C@@H]1NC(=O)[C@H](CCCNC(=N)N)NC(=O)[C@H](C(C)C)NC(=O)[C@@H]2CCCN2C(=O)[C@@H](Cc2ccccc2)NC(=O)[C@H](C)NC(=O)[C@H](CCCNC(=N)N)NC(=O)[C@H](C)NC(=O)[C@@H]2CCCN2C(=O)[C@@H](Cc2ccccc2)NC1=O (cyclo(ARA[dF]PVRL[dF]P))	43.6%
CC(C)C[C@@H]1NC(=O)[C@H](CCCNC(=N)N)NC(=O)[C@H](C(C)C)NC(=O)[C@H](CC(C)C)NC(=O)[C@@H](Cc2ccccc2)NC(=O)[C@H](C)NC(=O)[C@H](CCCNC(=N)N)NC(=O)[C@H](C(C)C)NC(=O)[C@@H]2CCCN2C(=O)[C@@H](Cc2ccccc2)NC1=O (cyclo(A[dF]LVRL[dF]PVR))	11.2%
CC(C)C[C@@H]1NC(=O)[C@H](CCCNC(=N)N)NC(=O)[C@H](C(C)C)NC(=O)[C@@H]2CCCN2C(=O)[C@@H](Cc2ccccc2)NC(=O)[C@H](CC(C)C)NC(=O)[C@H](CCCNC(=N)N)NC(=O)[C@H](C(C)C)NC(=O)[C@H](C)NC(=O)[C@@H](Cc2ccccc2)NC1=O (cyclo(L[dF]AVRL[dF]PVR))	27.2%
CC(C)C[C@@H]1NC(=O)[C@H](CCCNC(=N)N)NC(=O)[C@H](C(C)C)NC(=O)[C@@H]2CCCN2C(=O)[C@@H](Cc2ccccc2)NC(=O)[C@H](CC(C)C)NC(=O)[C@H]([C@@H](C)O)NC(=O)[C@@H]2CCCN2C(=O)[C@H](CC(=O)O)NC(=O)[C@@H](Cc2ccccc2)NC1=O (cyclo(DPTL[dF]PVRL[dF]))	12.9%
CC(C)C[C@@H]1NC(=O)[C@H](CC(=O)O)NC(=O)[C@H]([C@@H](C)O)NC(=O)[C@@H]2CCCN2C(=O)[C@@H](Cc2ccccc2)NC(=O)[C@H](CC(C)C)NC(=O)[C@H](Cc2cnc[nH]2)NC(=O)[C@H](C(C)C)NC(=O)[C@@H]2CCCN2C(=O)[C@@H](Cc2ccccc2)NC1=O (cyclo(DL[dF]PVHL[dF]PT))	6.8%
CC(C)C[C@@H]1NC(=O)[C@H](CCCNC(=N)N)NC(=O)[C@H](C(C)C)NC(=O)[C@@H]2CCCN2C(=O)[C@@H](Cc2ccccc2)NC(=O)[C@H](C)NC(=O)[C@H](CCCNC(=N)N)NC(=O)[C@H](C(C)C)NC(=O)[C@@H]2CCCN2C(=O)[C@@H](Cc2ccccc2)NC1=O (cyclo(A[dF]PVRL[dF]PVR))	21%
CC(C)C[C@@H]1NC(=O)[C@H](CCCNC(=N)N)NC(=O)[C@H](C)NC(=O)[C@@H]2CCCN2C(=O)[C@@H](Cc2ccccc2)NC(=O)[C@H](C)NC(=O)[C@H](CCCNC(=N)N)NC(=O)[C@H](C(C)C)NC(=O)[C@@H]2CCCN2C(=O)[C@@H](Cc2ccccc2)NC1=O (cyclo(ARL[dF]PVRA[dF]P))	6.3%
CCCC[C@@H]1NC(=O)[C@H](CC(=O)O)NC(=O)[C@H]([C@@H](C)O)NC(=O)[C@@H]2CCCN2C(=O)[C@@H](Cc2c[nH]c3ccccc23)NC(=O)[C@H](CC(C)C)NC(=O)[C@H](CCCNC(=N)N)NC(=O)[C@H](C(C)C)NC(=O)[C@H](CCCCNC(C)=C2C(=O)CC(C)(C)CC2=O)NC(=O)[C@@H](Cc2ccccc2)NC1=O	-2.81%
CC(C)C[C@@H]1NC(=O)[C@H](CCCNC(=N)N)NC(=O)[C@H](C(C)C)NC(=O)[C@@H]2CCCN2C(=O)[C@@H](Cc2ccccc2)NC(=O)[C@H](C)NC(=O)[C@H](CC(=O)O)NC(=O)[C@H]([C@@H](C)O)NC(=O)[C@@H]2CCCN2C(=O)[C@@H](Cc2ccccc2)NC1=O (cyclo(A[dF]PVRL[dF]PTD))	-5.69%
CC(C)C[C@@H]1NC(=O)[C@H](CC(=O)O)NC(=O)[C@H]([C@@H](C)O)NC(=O)[C@@H]2CCCN2C(=O)[C@@H](Cc2ccccc2)NC(=O)[C@H](CC(C)C)NC(=O)[C@H](CCCNC(=N)N)NC(=O)[C@H](C(C)C)NC(=O)[C@@H]2CCCN2C(=O)[C@@H](Cc2c[nH]c3ccccc23)NC1=O (cyclo(DL[dW]PVRL[dF]PT))	35.8%
CC(C)C[C@@H]1NC(=O)[C@H](CCCNC(=N)N)NC(=O)[C@H](C(C)C)NC(=O)[C@@H]2CCCN2C(=O)[C@@H](Cc2ccccc2)NC(=O)[C@H](Cc2cnc[nH]2)NC(=O)[C@H](CC(=O)O)NC(=O)[C@H]([C@@H](C)O)NC(=O)[C@@H]2CCCN2C(=O)[C@@H](Cc2ccccc2)NC1=O (cyclo(DH[dF]PVRL[dF]PT))	-8.61%
CC(C)C[C@@H]1NC(=O)[C@H](Cc2ccc(O)cc2)NC(=O)[C@H]([C@@H](C)O)NC(=O)[C@@H]2CCCN2C(=O)[C@@H](Cc2ccccc2)NC(=O)[C@H](CC(C)C)NC(=O)[C@H](CCCNC(=N)N)NC(=O)[C@H](C(C)C)NC(=O)[C@@H]2CCCN2C(=O)[C@@H](Cc2ccccc2)NC1=O (cyclo(L[dF]PTYL[dF]PVR))	8.25%
CC(C)C[C@@H]1NC(=O)[C@H](CCCN)NC(=O)[C@H](C(C)C)NC(=O)[C@@H]2CCCN2C(=O)[C@@H](Cc2ccccc2)NC(=O)[C@H](CC(C)C)NC(=O)[C@H](CCCN)NC(=O)[C@H](C(C)C)NC(=O)[C@@H]2CCCN2C(=O)[C@@H](Cc2ccccc2)NC1=O (cyclo(V[Orn]L[dF]PV[Orn]L[dF]P))	6.86%
CC(C)C[C@@H]1NC(=O)[C@H](CC(=O)O)NC(=O)[C@H]([C@@H](C)O)NC(=O)[C@@H]2CCCN2C(=O)[C@@H](Cc2ccccc2)NC(=O)[C@H](CC(C)C)NC(=O)[C@H](CC(N)=O)NC(=O)[C@H](C(C)C)NC(=O)[C@@H]2CCCN2C(=O)[C@@H](Cc2ccccc2)NC1=O (cyclo(DL[dF]PVNL[dF]PT))	16.6%
CC[C@H](C)[C@@H]1NC(=O)[C@@H]2CCCN2C(=O)[C@@H](Cc2ccccc2)NC(=O)[C@H](CC(C)C)NC(=O)[C@H](CC(=O)O)NC(=O)[C@H]([C@@H](C)O)NC(=O)[C@@H]2CCCN2C(=O)[C@@H](Cc2c[nH]c3ccccc23)NC(=O)[C@H](CC(C)C)NC(=O)[C@H](CCCNC(=N)N)NC1=O (cyclo(DL[dF]PIRL[dW]PT))	33.3%
